Data as given in US11008321B2, “Crystalline form of an avibactam derivative” (ARIXA PHARMACEUTICALS, INC., priority 2019, dated 2021).

Assays:
[1] = trans isomer vs cis isomer; cited from earlier work
[2] = Stability in aqueous suspension formulation (XRPD); assay type: physicochemical; details: 25° C., 24 hours; 0.25 wt % Tween 80, 10 wt % PEG 400, 0.5 wt % methylcellulose, pH 3.0 citrate buffer
Protocol: X-ray powder diffraction (XPRD) analysis was performed using a Panalytical X-Pert Powder XPRD (Malvem Panalytical Ltd.) on a Si zero-background holder. The 20 position was calibrated against a Panalytical Si standard disc. The X-ray wavelength was Kα2/Kα1 (1.540598 Å/1.544425 Å) at a 0.5 intensity ratio. The X-ray tube was set at an output voltage of 45 kV and a current of 40 mA. A ⅛° fixed divergence slit was used and the diffraction patterns were obtained from 3° to 40° (°2θ) in a continuous scan mode using a step size of 0.01310 (2θ) and a scan speed of 0.145 deg/min. An aqueous formulation of crystalline anhydrate (1) was prepared by suspending 100 mg crystalline anhydrate (1) in 100 mL of an aqueous solution containing 0.25 wt % Tween® 80, 10 wt % PEG 400, 0.5 wt % methylcellulose (400 cps), and a pH 3.0 citrate buffer. The suspension was sonicated and equilibrated for 24 hours at 25° C. before filtering out the crystalline anhydrate (1).

[3] = Thermogravimetric analysis; assay type: physicochemical; details: 10° C./min, N2
Protocol: Thermogravimetric analysis was performed using a TA Instruments Q500 TGA calibrated using a nickel reference standard. Samples were placed in an open platinum pan and after equilibrating at 35° C., the samples were heated under a nitrogen (N2) atmosphere at a rate of 10° C./min to a final temperature of 200° C. TGA curves for crystalline ethyl 3-(((((1R,2S,5R)-2-carbamoyl-7-oxo-1,6-diazabicyclo[3.2.1]octan-6-yl)oxy)sulfonyl)oxy)-2,2-dimethylpropanoate anhydrate are shown in FIGS. 2 and 4 show a weight loss of 9.7% between 125° C. to 150° C. The weight loss form 30° C. to 125° C. was 0.77%.

[4] = Jet milling, crystalline form by XRPD before and after; assay type: physicochemical; details: jet milled, particle size about 8.6 μm
Protocol: X-ray powder diffraction (XPRD) analysis was performed using a Panalytical X-Pert Powder XPRD (Malvem Panalytical Ltd.) on a Si zero-background holder. The 20 position was calibrated against a Panalytical Si standard disc. The X-ray wavelength was Kα2/Kα1 (1.540598 Å/1.544425 Å) at a 0.5 intensity ratio. The X-ray tube was set at an output voltage of 45 kV and a current of 40 mA. A ⅛° fixed divergence slit was used and the diffraction patterns were obtained from 3° to 40° (°2θ) in a continuous scan mode using a step size of 0.01310 (2θ) and a scan speed of 0.145 deg/min. Crystalline anhydrate (1) was jet milled to obtain a uniform particle size distribution centered at a about 8.6 μm. An Alpine 50AS (PDS-PL-JM-01) Jet Mill (Hosokawa Alpine) was used to prepare the formulation. The injector gas pressure was 4.0 Bar and the grinding gas pressure was 3.5 Bar. Five (5) gm of crystalline anhydrate (1) was gradually added to the jet mill and collected. The milled product was stored at a temperature from 2° C. to 8° C.

[5] = Dynamic vapor sorption (hygroscopicity); assay type: physicochemical
Protocol: The hygroscopicity of crystalline ethyl 3-(((((1R,2S,5R)-2-carbamoyl-7-oxo-1,6-diazabicyclo[3.2.1]octan-6-yl)oxy)sulfonyl)oxy)-2,2-dimethylpropanoate anhydrate (1) was evaluated during one vapor sorption/desorption cycle using a SMS DVS Intrinsic from Surface Measurement Systems set at 25° C., with a nitrogen (N2) gas flow rate of 200 mL/min, a dm/dt of 0.02%/min and a minimum dm/dt stability duration of 10 min. Samples (10 mg to 20 mg) were first dried at 25° C. for 180 min under a nitrogen atmosphere. The samples were considered equilibrated with the weight change during a 2-min interval was less than 0.01%. To evaluate the DVS the samples were exposed to a humidity cycle ramped/de-ramped from 5% RH to 95% RH at 10% RH intervals. At each humidity interval, the samples were equilibrated as determined by a less than 0.01% weight change during 5 min.

[6] = Stability on exposure to ambient conditions and formulation processing; assay type: physicochemical

SMILES	antibiotic activity of trans isomer relative to cis isomer [1]	stability in an aqueous suspension (XRPD similarity) [2]	weight loss (TGA) ([3]; 30° C. to 125° C.)	weight loss (TGA) ([3]; between 125° C. to 150° C.)	crystalline form before and after jet-milling (XRPD) [4]	change of crystalline form during water absorption/desorption (reversibility of DVS isotherm) ([5]; 25° C., one sorption/desorption cycle, 5% RH to 95% RH)	maximum increase in mass (moisture absorption) ([5]; 25° C./95% RH, humidity range 0% RH to 95% RH, reversible)	stability following exposure to ambient conditions ([6]; 25° C./60% RH)	stability during formulation processing conditions ([6]; formulation processing conditions)
Nc1nc(/C(=C/CC(=O)O)C(=O)N[C@@H]2C(=O)N3C(C(=O)O)=CCS[C@H]23)cs1 [Ceftibuten, (6R,7R)-7-((Z)-2-(2-amino-4-thiazolyl)-4-carboxycrotonamido)-8-oxo-5-thia-1-azabicyclo(4.2.0)oct-2-ene-2-carboxylic acid]	about one-eighth								
CCOC(=O)C(C)(C)COS(=O)(=O)ON1C(=O)N2C[C@H]1CC[C@H]2C(N)=O [crystalline anhydrate (1), ethyl 3-(((((1R,2S,5R)-2-carbamoyl-7-oxo-1,6-diazabicyclo[3.2.1]octan-6-yl)oxy)sulfonyl)oxy)-2,2-dimethylpropanoate]		stable	0.77%	9.7%	the same	does not change	about 3 wt %	stable	stable
